# Reference: patent US20260217701A1, “SELECTIVE BET INHIBITORS AND USES THEREOF” (Tay Therapeutics Limited, priority 2022, published 2026)
# Where two headings read alike, the source gives them in different places.
# Test system: collagen-induced arthritis
# Conditions: for animals with weight gain at end of study / diarrhea over the 21-day period / increase in body weight, day 21 vs day 0: rat, in vivo; for increase in body weight, day 21 vs day 0: po; for control of hind paw volume: reference treatments vs CIA+vehicle (group 2)
# Protocol: (§1) The emulsion was cooled in an ice water bath during the formulation. The final concentration of collagen was 1 mg/mL. The emulsion is prepared fresh immediately prior to injection.
# as §1
# Experimental groups for the study are outlined in Table 5A. […] Animals in group one received no immunization.
# IHC markers for staining were selected after evaluating clinical and histopathological scores for animals. After the skin was removed, the right hind limb was snap frozen in liquid nitrogen and RNA and protein analysis was performed.
# Blood samples were collected from animals in groups 1-7 via cardiac puncture following euthanasia on Day 21. […] Serum was divided into two separate tubes and stored at −75±15° C. One tube was used to analyze IgG1, and the other tube was reserved for additional analyses.
# H&E-stained slides of designated tissues from animals were transferred to an independent pathologist for microscopic evaluation (SPFBio). Samples were assigned the histologic grades based on the severity of change from tissue where CIA was not induced. Histology grades assigned were as follows: grade 1 (minimal change), grade 2 (mild change), grade 3 (moderate change), grade 4 (marked change), and grade 5 (severe change). A grade may be assigned for each indicator of disease severity: inflammation, mixed cell; granulation tissue; increased bone, periosteum; increased eroded surface, bone and erosion/ulcer, cartilaginous. […] Moderate inflammation was also associated with increased edema fluid, fibrin, and cellular debris. Marked mixed cell inflammation was characterized by dense, widespread accumulations of neutrophils and macrophages with lesser number of lymphocytes within one or more joint spaces, synovium and periarticular soft tissues. Marked inflammation was also associated with abundant edema fluid, fibrin, and cellular debris.
# Marked granulation tissue (pannus) was associated with inflammation and was characterized by widespread fibrovascular connective tissue that expanded/replaced the periarticular soft tissues of one or more joints, extended into/expanded joint spaces, was contiguous with areas of erosion/ulcer in articular cartilage and/or increased eroded surface of bone, and variably extended along the diaphysis.
# Marked increased periosteal bone (periosteal bone formation) was characterized by extensive areas of increased bone matrix and numerous prominent osteoblasts lining trabecular surfaces along the metaphysis and/or diaphysis of one or more bones.
structure (smiles),measurement,setting,value
"Cn1cc(-c2ccccc2)c(-c2cn(C)c(=O)c3[nH]c(-c4cnn(C(F)(F)F)c4)cc23)cc1=O [Compound A, 6-methyl-4-(1-methyl-2-oxo-5-phenyl-1,2-dihydropyridin-4-yl)-2-(1-(trifluoromethyl)-1H-pyrazol-4-yl)-1,6-dihydro-7H-pyrrolo[2,3-c]pyridin-7-one]",plateau increase in paw volume relative to day 0,"1 mg/kg (group 5), around day 18",approximately 50%
same,animals exhibiting disease,"1 mg/kg (group 5), day 14",5/8
same,animals exhibiting disease,"1 mg/kg (group 5), day 18",7/8
same,percent inhibition in clinical score relative to GSK620,1 mg/kg and 3 mg/kg vs GSK620 10 mg/kg,nearly twice as high
same,percent inhibition of increase in paw volume relative to GSK620,1 mg/kg or 3 mg/kg vs GSK620 10 mg/kg,more than twice
same,plateau increase in paw volume relative to day 0,3 mg/kg,approximately 40%
same,animals exhibiting disease,"3 mg/kg (group 6), day 15",4/8
same,animals exhibiting disease,"3 mg/kg (group 6), day 18",all animals
same,animals exhibiting disease,"10 mg/kg (group 7), day 15",4/8
same,animals exhibiting disease,"10 mg/kg (group 7), day 18",7/8
same,decrease in paw volume relative to CIA+Vehicle,"10 mg/kg PO QD, Day 21",~79%
same,reduction in clinical score compared to vehicle-treated animals,"10 mg/kg PO QD, Day 21",~71%
same,"rat anti-collagen IgG1 antibodies, lower than vehicle treated animals","10 mg/kg, day 21, serum",> 98%
same,plateau increase in paw volume relative to day 0,"10 mg/kg, Group 7",approximately 35%
same,rat anti-collagen IgG1 antibodies relative to untreated CIA animals,"1, 3 and 10 mg/kg, day 21, p<0.01",significantly decreased
same,average overall clinical score at plateau,"group 5 (1 mg/kg), around day 18-19",5
same,average overall clinical score at plateau,"group 6 (3 mg/kg), around day 18-19",4
same,average overall clinical score at plateau,"group 7 (10 mg/kg), around day 18-19",4
"C[C@@H]1C[C@H]2[C@@H]3CCC4=CC(=O)C=C[C@]4(C)[C@@]3(F)[C@@H](O)C[C@]2(C)[C@@]1(O)C(=O)CO [Dexamethasone, dexamethasone]",animals with weight gain at end of study,,4/8
same,diarrhea over the 21-day period,,did not have diarrhea
same,"increase in body weight, day 21 vs day 0",,1.3%
same,average overall clinical score at plateau,"reference treatments (groups 3 and 4), around day 18",never exhibited any signs of disease
same,control of hind paw volume,,effective at controlling paw volume
CNC(=O)c1cc(C(=O)NC2CC2)cn(Cc2ccccc2)c1=O [GSK620],animals exhibiting disease,"group 4, day 18",all animals
same,animals with weight gain at end of study,,4/8
same,diarrhea over the 21-day period,,did not have diarrhea
same,"increase in body weight, day 21 vs day 0",,0.8%
same,control of hind paw volume,,failed to prevent an increase in paw volume
